These results are taken from US7368471B2, “Substituted indole acid derivatives as inhibitors of plasminogen activator inhibitor-1 (PAI-1)” (Wyeth, priority 2001, dated 2008).

T1 sequence (P05121 24-402): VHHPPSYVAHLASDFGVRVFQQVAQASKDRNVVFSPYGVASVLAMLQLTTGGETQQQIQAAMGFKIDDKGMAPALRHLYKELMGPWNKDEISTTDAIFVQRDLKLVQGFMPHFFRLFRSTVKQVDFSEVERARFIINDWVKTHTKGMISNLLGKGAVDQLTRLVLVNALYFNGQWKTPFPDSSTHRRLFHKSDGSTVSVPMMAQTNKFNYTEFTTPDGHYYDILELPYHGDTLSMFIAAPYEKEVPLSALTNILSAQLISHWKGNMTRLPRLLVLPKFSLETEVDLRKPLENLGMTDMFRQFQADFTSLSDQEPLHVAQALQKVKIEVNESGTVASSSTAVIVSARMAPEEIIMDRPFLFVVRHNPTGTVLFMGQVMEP

The first data set addresses T1, recombinant human plasminogen activator inhibitor-1 (PAI-1) (Homo sapiens, UniProt P05121).
T1 construct: purchased Molecular Innovations, Royal Oak, Mich
The data set is described as follows: Primary Screen for the PAI-1 Inhibition (residual tPA activity, Spectrozyme-tPA chromogenic substrate). It counts as biochemical. The settings on record: 25 μM test compound. How it is done:
Primary Screen for the PAI-1 Inhibition
Test compounds are dissolved in DMSO at a final concentration of 10 mM, then diluted 100× in physiologic buffer. The inhibitory assay is initiated by the addition of the test compound (1-100 μM final concentration, maximum DMSO concentration of 0.2%) in a pH 6.6 buffer containing 140 nM recombinant human plasminogen activator inhibitor-1 (PAI-1; Molecular Innovations, Royal Oak, Mich.). Following a 1 hour incubation at room temperature, 70 nM of recombinant human tissue plasminogen activator (tPA) is added, and the combination of the test compound, PAI-1 and tPA is incubated for an additional 30 minutes. Following the second incubation, Spectrozyme-tPA (American Diagnostica, Greenwich, Conn.), a chromogenic substrate for tPA, is added and absorbance read at 405 nm at 0 and 60 minutes. Relative PAI-1 inhibition is equal to the residual tPA activity in the presence of the test compound and PAI-1. Control treatments include the complete inhibition of tPA by PAI-1 at the molar ratio employed (2:1), and the absence of any effect of the test compound on tPA alone.
As for `O=C(O)C(=O)c1cn(Cc2ccccc2)c2cccc(-c3ccc(OC(F)(F)F)cc3)c12` [Example 20, {1-Benzyl-4-[4-(trifluoromethoxy)phenyl]-1H-indol-3-yl}(oxo)acetic acid], the inhibition at 25 µM was determined as 14%. The same measure, in the same setting: then `O=C(O)C(=O)c1cn(Cc2ccccc2)c2cc(-c3ccccc3)ccc12` [Example 23, (1-Benzyl-6-phenyl-1H-indol-3-yl)(oxo)acetic acid], with 40%; and `O=C(O)C(=O)c1cn(C2CCCC2)c2ccc(-c3cccc(Cl)c3)cc12` [Example 45, [5-(3-Chlorophenyl)-1-cyclopentyl-1H-indol-3-yl]-oxo-acetic acid], with 45%; and `O=C(O)C(=O)c1cn(CC2CCC2)c2ccc(-c3cccc(Cl)c3)cc12` [Example 46, [5-(3-chlorophenyl)-1-(cyclobutylmethyl)-1H-indol-3-yl](oxo)acetic acid], with 45%. On to `O=C(O)C(=O)c1cn(C2CCCC2)c2ccc(-c3ccc(C(F)(F)F)cc3)cc12` [Example 49, [5-(4-trifluoromethylphenyl)-1-(cyclopentyl)-1H-indol-3-yl](oxo)acetic acid], for which the inhibition at 25 µM turned out to be 54%. Same read-out and setting: the same measure for `O=C(O)C(=O)c1cn(CC2CCC2)c2ccc(-c3ccc(C(F)(F)F)cc3)cc12` [Example 50, [5-(4-trifluoromethylphenyl)-1-(cyclobutylmethyl)-1H-indol-3-yl](oxo)acetic acid]: 59%; for `CC1CCC(n2cc(C(=O)C(=O)O)c3cc(-c4ccc(C(F)(F)F)cc4)ccc32)C1` (stereo not drawn) [Example 51, [5-(4-trifluoromethylphenyl)-1-(3-methylcyclopentyl)-1H-indol-3-yl](oxo)acetic acid]: 58%.

As for `O=C(O)C(=O)c1cn(CC2CCCCC2)c2ccc(-c3ccc(C(F)(F)F)cc3)cc12` [Example 52, [5-(4-trifluoromethylphenyl)-1-(cyclohexylmethyl)-1H-indol-3-yl](oxo)acetic acid], the inhibition at 25 µM is 59%. The same measure, in the same setting: the same measure for `O=C(O)C(=O)c1cn(CCCC2CCCC2)c2ccc(-c3ccc(C(F)(F)F)cc3)cc12` [Example 53, [5-(4-trifluoromethylphenyl)-1-(cyclopentylpropyl)-1H-indol-3-yl](oxo)acetic acid]: 67%; for `O=C(O)C(=O)c1cn(C2CCCC2)c2ccc(-c3cccc(C(F)(F)F)c3)cc12` [Example 54, [5-(3-trifluoromethylphenyl)-1-(cyclopentyl)-1H-indol-3-yl](oxo)acetic acid]: 46%. Consider `O=C(O)C(=O)c1cn(CC2CCC2)c2ccc(-c3cccc(C(F)(F)F)c3)cc12` [Example 55, [5-(3-trifluoromethylphenyl)-1-(cyclobutylmethyl)-1H-indol-3-yl](oxo)acetic acid], for which the inhibition at 25 µM came out at 51%. Still for that read-out and setting: then `CC1CCC(n2cc(C(=O)C(=O)O)c3cc(-c4cccc(C(F)(F)F)c4)ccc32)C1` (stereo not drawn) [Example 56, [5-(3-trifluoromethylphenyl)-1-(3-methylcyclopentyl)-1H-indol-3-yl](oxo)acetic acid], with 54%.

Tested on in a further data set: not given
Test: not given
Details: not given
In the case of `Cn1cc(CC(=O)O)c2cc(-c3ccc(C(F)(F)F)cc3)ccc21` [Example 63, [1-Methyl-5-(4-trifluoromethyl-phenyl)-1H-indol-3-yl]-acetic acid], the melting point was in the range of 167 to 168 °C. Still for that read-out and setting: the same measure for `Cc1cccc(-c2ccc3c(c2)c(CC(=O)O)cn3Cc2ccc(C(C)(C)C)cc2)c1` [Example 64, 2-[1-[4-(tert-Butyl)benzyl]-5-(3-methylphenyl)-1H-indol-3-yl]-acetic acid]: 91 to 92 °C; for `Cc1ccc(Cn2cc(CC(=O)O)c3cc(-c4ccc(OC(F)(F)F)cc4)ccc32)cc1` [Example 65, {1-(4-Methylbenzyl)-5-[4-(trifluoromethoxy)phenyl]-1H-indol-3-yl}acetic acid]: 62 to 63 °C.

Broadly, the inhibition is how much of the control response was suppressed. As a reminder, the melting point is the temperature, or range, at which the solid turns liquid.
